Laboratory results published in ChEMBL document CHEMBL1138457, “Design and synthesis of an orally bioavailable and selective peptide epoxyketone proteasome inhibitor (PR-047)” (J Med Chem, 2009).

Key:
[1] = Inhibition of chymotrypsin-like activity of human 20S proteasome by spectrofluorimetry
[2] = Inhibition of chymotrypsin-like activity of 20S proteasome in human MOLT4 cells after 1 hr by […]; assay type: cell-based; conditions: MOLT-4, 1 h
[3] = Cytotoxicity against human MESSA cells assessed as cell viability after 72 hrs by CellTiter-Glo luminescent assay; assay type: functional, cell-based; conditions: MES-SA
[4] = Cytotoxicity against multidrug resistance transporter expressing doxorubicin resistant human MESSA cells assessed as cell viability after 72 hrs by CellTiter-Glo luminescent assay; assay type: functional, cell-based; conditions: MES-SA
Mus musculus [5] = experiment: Inhibition of chymotrypsin-like activity of 20S proteasome in BALB/c mouse adrenal gland 40 mg/kg, po after 1 hr; assay type: functional; set-up: scale not given: the % may be the effect or the level left
[6] = Chemical stability in simulated intestinal fluid assessed as compound remaining at 4 uM after 15 mins; assay type: physicochemical; conditions: read-out: Stability
[7] = Metabolic stability in mouse liver microsomes assessed as extraction ratio at 1 uM; assay type: ADME, Microsome
[8] = Metabolic stability in human liver microsomes assessed as extraction ratio at 1 uM; assay type: ADME, Microsome
Mus musculus [9] = experiment: Inhibition of chymotrypsin-like activity of 20S proteasome in BALB/c mouse adrenal gland at 20 mg/kg, po after 1 hr; assay type: functional; set-up: scale not given: the % may be the effect or the level left
[10] = Inhibition of chymotrypsin-like activity of human 20S proteasome beta 5 subunit by proteasome active site ELISA

Row | SMILES | IC50 [1] [nM] | remaining at 0.25 h, 4 µM [6] [%] | hepatic extraction ratio at 1 µM [7] [dimensionless ratio] | hepatic extraction ratio at 1 µM [8] [dimensionless ratio] | IC50 [10] [nM] | IC50 [2] [nM] | IC50 [3] [nM] | IC50 [4] [nM] | Activity (Mus musculus [5]) [%] | Activity (Mus musculus [9]) [%]
1 | CC(C)C[C@H](NC(=O)[C@H](Cc1ccccc1)NC(=O)CN1CCOCC1)C(=O)[C@@]1(C)CO1 | > 1000 |  |  |  |  | > 1000 | > 1000 | > 1000 |  | 
2 | CC(C)C[C@H](NC(=O)[C@H](Cc1ccccc1)NC(=O)[C@H](Cc1ccccn1)NC(=O)c1cc(CN2CCOCC2)on1)C(=O)[C@@]1(C)CO1 | 5.2 | 20 |  |  |  | 31 | 11 | 421 | 92 | 
3 | COC[C@H](NC(=O)c1cc(C)on1)C(=O)N[C@H](C(=O)N[C@@H](CC(C)C)C(=O)[C@@]1(C)CO1)C(C)C | 44 | 95 | 0.79 | 0.63 |  | 147 | 57 | 636 |  | 12
4 | COC[C@H](NC(=O)c1cc(C)on1)C(=O)N[C@@H](Cc1cscn1)C(=O)N[C@@H](CC(C)C)C(=O)[C@@]1(C)CO1 | 16 | 100 | 0.86 | 0.85 |  | 25 | 17 | 367 |  | 39
5 | Cc1cc(C(=O)N[C@@H](Cc2ccncc2)C(=O)N[C@@H](Cc2ccccc2)C(=O)N[C@@H](CC(C)C)C(=O)[C@@]2(C)CO2)no1 | 2.8 | 90 |  |  |  | 8.6 | 8.6 | 271 | 28 | 
6 | Cc1cc(C(=O)N[C@@H](Cc2cccnc2)C(=O)N[C@@H](Cc2ccccc2)C(=O)N[C@@H](CC(C)C)C(=O)[C@@]2(C)CO2)no1 | 1.6 | 90 |  |  |  | 27 | 39 | 543 | 70 | 
7 | CC(C)C[C@H](NC(=O)[C@H](Cc1ccccc1)NC(=O)[C@H](Cc1ccncc1)NC(=O)c1cc(CN2CCOCC2)on1)C(=O)[C@@]1(C)CO1 | 5.1 | 60 |  |  |  | 14 | 8.7 | > 1000 | 96 | 
8 | CC(C)C[C@H](NC(=O)[C@H]1CCCO1)C(=O)N[C@@H](Cc1ccccc1)C(=O)N[C@@H](CC(C)C)C(=O)[C@@]1(C)CO1 | 34 |  |  |  |  | 154 | 69 | 110 |  | 
9 | COC[C@H](NC(=O)c1cc(C)on1)C(=O)N[C@@H](CC#N)C(=O)N[C@@H](CC(C)C)C(=O)[C@@]1(C)CO1 | 40 | 100 | 0.28 |  |  | 91 | 29 | 941 |  | 40
10 | CC(C)C[C@H](NC(=O)[C@H](Cc1ccccc1)NC(=O)c1cnccn1)B(O)O [BORTEZOMIB] |  |  |  |  | 8.7 |  |  |  |  | 
11 | COCC[C@H](NC(=O)c1cc(CN2CCOCC2)on1)C(=O)N[C@@H](Cc1ccccc1)C(=O)N[C@@H](CC(C)C)C(=O)[C@@]1(C)CO1 | 19 | 90 |  |  |  | 42 | 24 | 1140 | 81 | 
12 | CC(C)C[C@H](NC(=O)[C@@H]1CCCO1)C(=O)N[C@@H](Cc1ccccc1)C(=O)N[C@@H](CC(C)C)C(=O)[C@@]1(C)CO1 | 42 |  |  |  |  | 180 | 130 | 159 |  | 
13 | CC(C)C[C@H](NC(=O)[C@H](Cc1ccccc1)NC(=O)[C@H](Cc1cscn1)NC(=O)c1cc(CN2CCOCC2)on1)C(=O)[C@@]1(C)CO1 | 6.9 | 15 |  |  |  | 59 | 7.9 | 841 | 93 | 
14 | COC[C@H](NC(=O)c1cc(C)on1)C(=O)N[C@@H](Cc1ccsc1)C(=O)N[C@@H](CC(C)C)C(=O)[C@@]1(C)CO1 | 9.2 | 90 | 0.95 | 0.87 |  | 46 | 25 | 181 |  | 117
15 | CC(C)C[C@H](NC(=O)c1ccncc1)C(=O)N[C@@H](Cc1ccccc1)C(=O)N[C@@H](CC(C)C)C(=O)[C@@]1(C)CO1 | 20 |  |  |  |  | 55 | 33 | > 1000 |  | 
16 | Cc1cc(C(=O)N[C@@H](Cc2ccccn2)C(=O)N[C@@H](Cc2ccccc2)C(=O)N[C@@H](CC(C)C)C(=O)[C@@]2(C)CO2)no1 | 13 | 20 |  |  |  | 78 | 45 | 219 | 23 | 
17 | CC[C@H](NC(=O)[C@H](COC)NC(=O)c1cc(C)on1)C(=O)N[C@@H](CC(C)C)C(=O)[C@@]1(C)CO1 | 54 | 100 | 0.47 |  |  | 248 | 92 | 468 |  | 90
18 | COC[C@H](NC(=O)c1cc(C)on1)C(=O)N[C@@H](CC1CCCCC1)C(=O)N[C@@H](CC(C)C)C(=O)[C@@]1(C)CO1 | 13 | 75 | 0.96 | 0.94 |  | 78 | 210 | 353 |  | 56
19 | COC[C@H](NC(=O)c1cc(CN2CCOCC2)on1)C(=O)N[C@@H](Cc1ccccc1)C(=O)N[C@@H](CC(C)C)C(=O)[C@@]1(C)CO1 | 5.7 | 80 |  |  |  | 26 | 13 | 147 | 57 | 
20 | COC[C@H](NC(=O)c1cc(C)on1)C(=O)N[C@@H](CC(C)C)C(=O)N[C@@H](CC(C)C)C(=O)[C@@]1(C)CO1 | 20 | 90 | 0.45 | 0.83 |  | 41 | 45 | 366 |  | 37

The next lines start with results.

Row | IC50 [1] [nM] | remaining at 0.25 h, 4 µM [6] [%] | hepatic extraction ratio at 1 µM [7] [dimensionless ratio] | hepatic extraction ratio at 1 µM [8] [dimensionless ratio] | IC50 [10] [nM] | SMILES | IC50 [2] [nM] | IC50 [3] [nM] | IC50 [4] [nM] | Activity (Mus musculus [5]) [%] | Activity (Mus musculus [9]) [%]
21 | 26 | 80 |  |  |  | COCC[C@H](NC(=O)c1cc(C)on1)C(=O)N[C@@H](Cc1ccccc1)C(=O)N[C@@H](CC(C)C)C(=O)[C@@]1(C)CO1 | 69 | 164 | 286 | 47 | 
22 | 107 |  |  |  |  | CC(C)C[C@H](NC(=O)c1ncc[nH]1)C(=O)N[C@@H](Cc1ccccc1)C(=O)N[C@@H](CC(C)C)C(=O)[C@@]1(C)CO1 | 271 | 136 | > 1000 |  | 
23 | 7.4 |  |  |  |  | CC(C)C[C@H](NC(=O)c1ccon1)C(=O)N[C@@H](Cc1ccccc1)C(=O)N[C@@H](CC(C)C)C(=O)[C@@]1(C)CO1 | 50 | 73 | 123 |  | 
24 | 752 |  |  |  |  | CC(C)C[C@H](NC(=O)c1cnccn1)C(=O)N[C@@H](Cc1ccccc1)C(=O)N[C@@H](CC(C)C)C(=O)[C@@]1(C)CO1 | > 1000 | > 1000 | > 1000 |  | 
25 | 27 |  |  |  |  | CC(C)C[C@H](NC(=O)c1cnco1)C(=O)N[C@@H](Cc1ccccc1)C(=O)N[C@@H](CC(C)C)C(=O)[C@@]1(C)CO1 | 84 | 159 | 505 |  | 
26 | 6.3 |  |  |  |  | CC(C)C[C@H](NC(=O)c1cc(C(C)C)on1)C(=O)N[C@@H](Cc1ccccc1)C(=O)N[C@@H](CC(C)C)C(=O)[C@@]1(C)CO1 | 17 | 63 | 30 |  | 
27 | 36 |  |  |  |  | CC(C)C[C@H](NC(=O)c1cc[nH]n1)C(=O)N[C@@H](Cc1ccccc1)C(=O)N[C@@H](CC(C)C)C(=O)[C@@]1(C)CO1 | 188 | 109 | > 1000 |  | 
28 | 12 |  |  |  |  | CC(C)C[C@H](NC(=O)c1ccnnc1)C(=O)N[C@@H](Cc1ccccc1)C(=O)N[C@@H](CC(C)C)C(=O)[C@@]1(C)CO1 | 50 | 18 | > 1000 |  | 
29 | 5.8 |  |  |  |  | CC(C)C[C@H](NC(=O)c1ccno1)C(=O)N[C@@H](Cc1ccccc1)C(=O)N[C@@H](CC(C)C)C(=O)[C@@]1(C)CO1 | 65 | 58 | 82 |  | 
30 | 13 |  |  |  |  | Cc1cc(NC(=O)N[C@@H](CC(C)C)C(=O)N[C@@H](Cc2ccccc2)C(=O)N[C@@H](CC(C)C)C(=O)[C@@]2(C)CO2)no1 | 47 | 182 | > 1000 |  | 
31 | 10 |  |  |  |  | CC(C)C[C@H](NC(=O)c1cccs1)C(=O)N[C@@H](Cc1ccccc1)C(=O)N[C@@H](CC(C)C)C(=O)[C@@]1(C)CO1 | 40 | 34 | 120 |  | 
32 | 76 |  |  |  |  | CC(C)C[C@H](NC(=O)c1ccn(C)n1)C(=O)N[C@@H](Cc1ccccc1)C(=O)N[C@@H](CC(C)C)C(=O)[C@@]1(C)CO1 | 290 | 137 | 205 |  | 
33 | 34 |  |  |  |  | CC(C)C[C@H](NC(=O)c1ccoc1)C(=O)N[C@@H](Cc1ccccc1)C(=O)N[C@@H](CC(C)C)C(=O)[C@@]1(C)CO1 | 116 | 54 | 125 |  | 
34 | 1.2 |  |  |  |  | COCc1cc(C(=O)N[C@@H](CC(C)C)C(=O)N[C@@H](Cc2ccccc2)C(=O)N[C@@H](CC(C)C)C(=O)[C@@]2(C)CO2)no1 | 8.1 | 23 | 28 |  | 
35 | 122 |  |  |  |  | CC(C)C[C@H](NC(=O)c1nccn1C)C(=O)N[C@@H](Cc1ccccc1)C(=O)N[C@@H](CC(C)C)C(=O)[C@@]1(C)CO1 | 161 | 67 | 164 |  | 
